# Assay results as given in patent US12247010B2, “Tubulin inhibitors” (LIN BIOSCIENCE PTY LTD., priority 2017, dated 2025).
# System: U87MG cells
# Experiment: Cytotoxicity assay (cell viability, CellTiter 96 Aqueous MTS)
# Assay type: cell-based
# Conditions: Homo sapiens, U-87 MG, 72 h, 72 hours incubation, starting concentration 50 uM, 9 point half log dilution, average where tested repeatedly
# Experimental: Example 3: Cytotoxicity Assay
# U87MG cells were plated at a density of 7×10^3 cells/well and allowed to seed overnight. Cells were then treated with compounds from Table 1 or CMPD-1 (4-(2′-fluoro-[1,1′-biphenyl]-4-yl)-N-(4-hydroxyphenyl)butanamide as a positive control) were added to cells at a starting concentration of 50 uM, with a 9 point half log dilution, and incubated for 72 hours prior to viability determination. IC50 values were calculated from cell viability as measured using the CellTiter 96® Aqueous MTS reagent from Promega©, and the results are shown in Table 2.
row,SMILES,IC50
1,"CCOc1cccc(-c2ccc(CCCC(=O)Nc3cccnc3)cc2)c1F [Compound 218, 4-(3′-ethoxy-2′-fluoro-[1,1′-biphenyl]-4-yl)-N-(pyridin-3-yl)butanamide]",< 0.5 µM
2,"COc1ccc(CC(=O)NCCCc2ccc(-c3ccccc3F)cc2)cc1OC [Compound 110, 2-(3,4-dimethoxyphenyl)-N-(3-(2′-fluoro-[1,1′-biphenyl]-4-yl)propyl)acetamide]",> 5 µM
3,"Cn1cnc(S(=O)(=O)NCCCc2ccc(-c3ccccc3F)cc2)c1 [Compound 263, N-(3-(2′-fluoro-[1,1′-biphenyl]-4-yl)propyl)-1-methyl-1H-imidazole-4-sulfonamide]",1 to 5 µM
4,"Cn1cnc2cc(-c3ccc(CCCC(=O)Nc4cccnc4)cc3)ccc21 [Compound 296, 4-(4-(1-methyl-1H-benzo [d]imidazol-5-yl)phenyl)-N-(pyridin-3-yl)butanamide]",< 0.5 µM
5,"Cc1cc(C(=O)NCCCc2ccc(-c3ccccc3F)cc2)n(C)n1 [Compound 89, N-(3-(2′-fluoro-[1,1′-biphenyl]-4-yl)propyl)-1,3-dimethyl-1H-pyrazole-5-carboxamide]",< 0.5 µM
6,"Cc1ccc(CC(=O)NCCCc2ccc(-c3ccccc3F)cc2)cc1 [Compound 140, N-(3-(2′-fluoro-[1,1′-biphenyl]-4-yl)propyl)-2-(p-tolyl)acetamide]",< 0.5 µM
7,"O=C(CCCc1ccc(-c2cnn(Cc3ccccc3)c2)cc1)Nc1cccnc1 [Compound 193, 4-(4-(1-benzyl-1H-pyrazol-4-yl)phenyl)-N-(pyridin-3-yl)butanamide]",> 5 µM
8,"Cc1cc2ncc(C(=O)NCCCc3ccc(-c4ccccc4F)cc3)cn2n1 [Compound 286, N-(3-(2′-fluoro-[1,1′-biphenyl]-4-yl)propyl)-2-methylpyrazolo[1,5-a]pyrimidine-6-carboxamide]",< 0.5 µM
9,"O=C(CCCc1ccc(-c2ccc3[nH]cnc3c2)cc1)Nc1cccnc1 [Compound 195, 4-(4-(1H-benzo[d]imidazol-5-yl)phenyl)-N-(pyridin-3-yl)butanamide]",0.501 to 1 µM
10,"Cc1ccc(C(=O)NCCCc2ccc(-c3ccc4[nH]c(=O)ccc4c3)cc2)cn1 [Compound 315, 6-methyl-N-(3-(4-(2-oxo-1,2-dihydroquinolin-6-yl)phenyl)propyl)nicotinamide]",< 0.5 µM
11,"Cn1nccc1C(=O)NCCCc1ccc(-c2ccccc2F)cc1 [Compound 106, N-(3-(2′-fluoro-[1,1′-biphenyl]-4-yl)propyl)-1-methyl-1H-pyrazole-5-carboxamide]",0.501 to 1 µM
12,"Cn1cc2cc(-c3ccc(CCCC(=O)Nc4cccnc4)cc3)ccc2n1 [Compound 164, 4-(4-(2-methyl-2H-indazol-5-yl)phenyl)-N-(pyridin-3-yl)butanamide]",0.501 to 1 µM
13,"Cc1ccc(C(=O)NCCCc2ccc(-c3ccc4c(c3)OCC(=O)N4)cc2)cn1 [Compound 312, 6-methyl-N-(3-(4-(3-oxo-3,4-dihydro-2H-benzo[b][1,4]oxazin-7-yl)phenyl)propyl)nicotinamide]",< 0.5 µM
14,"O=C(CCCc1ccc(-c2ccccc2Cl)cc1)Nc1cccnc1 [Compound 160, 4-(2′-chloro-[1,1′-biphenyl]-4-yl)-N-(pyridin-3-yl)butanamide]",1 to 5 µM
15,"CCOc1ccc(CC(=O)NCCCc2ccc(-c3ccccc3F)cc2)cc1 [Compound 112, 2-(4-ethoxyphenyl)-N-(3-(2′-fluoro-[1,1′-biphenyl]-4-yl)propyl)acetamide]",1 to 5 µM
16,"O=C(NCCCc1ccc(-c2cnc3[nH]ccc3c2)cc1)c1cncnc1 [Compound 307, N-(3-(4-(1H-pyrrolo [2,3-b]pyridin-5-yl)phenyl)propyl)pyrimidine-5-carboxamide]",< 0.5 µM
17,"Cn1ncc2ccc(-c3ccc(CCCC(=O)Nc4cccnc4)cc3)cc21 [Compound 166, 4-(4-(1-methyl-1H-indazol-6-yl)phenyl)-N-(pyridin-3-yl)butanamide]",1 to 5 µM
18,"O=C(NCCCc1ccc(-c2ccccc2F)cc1)c1ccc2[nH]ccc2c1 [Compound 74, N-(3-(2′-fluoro-[1,1′-biphenyl]-4-yl)propyl)-1H-indole-5-carboxamide]",0.501 to 1 µM
19,"CC(=O)Nc1ccc(C(=O)NCCCc2ccc(-c3ccccc3F)cc2)cn1 [Compound 121, 6-acetamido-N-(3-(2′-fluoro-[1,1′-biphenyl]-4-yl)propyl)nicotinamide]",1 to 5 µM
20,"Cc1cc(C(=O)NCCCc2ccc(-c3ccc4c(cnn4C)c3)cc2)n(C)n1 [Compound 236, 1,3-dimethyl-N-(3-(4-(1-methyl-1H-indazol-5-yl)phenyl)propyl)-1H-pyrazole-5-carboxamide]",< 0.5 µM
21,"Cc1ccc(C(=O)NCCCc2ccc(-c3ccc4ncccc4c3)cc2)cn1 [Compound 237, 6-methyl-N-(3-(4-(quinolin-6-yl)phenyl)propyl)nicotinamide]",< 0.5 µM
22,"Cc1ccccc1-c1ccc(CCCC(=O)Nc2cccnc2)cc1 [Compound 152, 4-(2′-methyl-[1,1′-biphenyl]-4-yl)-N-(pyridin-3-yl)butanamide]",> 5 µM

row,SMILES,IC50
1,"O=C(CCCc1ccc(-c2cnc3c(c2)CCC(=O)N3)cc1)Nc1cccnc1 [Compound 211, 4-(4-(7-oxo-5,6,7,8-tetrahydro-1,8-naphthyridin-3-yl)phenyl)-N-(pyridin-3-yl)butanamide]",1 to 5 µM
2,"O=C(CCCc1cccc(-n2cccn2)c1)Nc1cccnc1 [Compound 185, 4-(3-(1H-pyrazol-1-yl)phenyl)-N-(pyridin-3-yl)butanamide]",> 5 µM
3,"O=C(CCCc1ccc(-c2ccccc2F)cc1)Nc1cn[nH]c1 [Compound 47, 4-(2′-fluoro-[1,1′-biphenyl]-4-yl)-N-(1H-pyrazol-4-yl)butanamide]",> 5 µM
4,"O=C(NCCCc1ccc(-c2ccccc2F)cc1)c1cc[nH]n1 [Compound 113, N-(3-(2′-fluoro-[1,1′-biphenyl]-4-yl)propyl)-1H-pyrazole-3-carboxamide]",> 5 µM
5,"Cc1ncccc1C(=O)NCCCc1ccc(-c2cnc3[nH]ccc3c2)cc1 [Compound 311, N-(3-(4-(1H-pyrrolo[2,3-b]pyridin-5-yl)phenyl)propyl)-2-methylnicotinamide]",< 0.5 µM
6,"O=C(CCCc1ccc(-c2cc(C(=O)N3CCOCC3)ccc2F)cc1)Nc1cccnc1 [Compound 200, 4-(2′-fluoro-5′-(morpholine-4-carbonyl)-[1,1′-biphenyl]-4-yl)-N-(pyridin-3-yl)butanamide]",> 5 µM
7,"O=C(CCCc1ccc(-c2ccccc2OC(F)(F)F)cc1)Nc1cccnc1 [Compound 154, N-(pyridin-3-yl)-4-(2′-(trifluoromethoxy)-[1,1′-biphenyl]-4-yl)butanamide]",1 to 5 µM
8,"O=C(CCCc1ccc(-c2ccc3nccnc3c2)cc1)Nc1cccnc1 [Compound 192, N-(pyridin-3-yl)-4-(4-(quinoxalin-6-yl)phenyl)butanamide]",1 to 5 µM
9,"Cc1ncc(C(=O)NCCCc2ccc(-c3ccc4[nH]ncc4c3C)cc2)s1 [Compound 308, 2-methyl-N-(3-(4-(4-methyl-1H-indazol-5-yl)phenyl)propyl)thiazole-5-carboxamide]",< 0.5 µM
10,"Cc1ccc(-c2ccc(CCCC(=O)Nc3cccnc3)cc2)cn1 [Compound 153, 4-(4-(6-methylpyridin-3-yl)phenyl)-N-(pyridin-3-yl)butanamide]",> 5 µM
11,"N#Cc1cccc(-c2ccc(CCCC(=O)Nc3cccnc3)cc2)c1F [Compound 221, 4-(3′-cyano-2′-fluoro-[1,1′-biphenyl]-4-yl)-N-(pyridin-3-yl)butanamide]",1 to 5 µM
12,"O=C(CCCc1ccc(-c2cc3cccnc3cc2F)cc1)Nc1cccnc1 [Compound 190, 4-(4-(7-fluoroquinolin-6-yl)phenyl)-N-(pyridin-3-yl)butanamide]",< 0.5 µM
13,"O=C(NCCCc1ccc(-c2ccccc2F)cc1)c1ccc2cn[nH]c2c1 [Compound 79, N-(3-(2′-fluoro-[1,1′-biphenyl]-4-yl)propyl)-1H-indazole-6-carboxamide]",> 5 µM
14,"Cc1ncccc1C(=O)NCCCc1ccc(-c2ccc3[nH]ncc3c2C)cc1 [Compound 310, 2-methyl-N-(3-(4-(4-methyl-1H-indazol-5-yl)phenyl)propyl)nicotinamide]",< 0.5 µM
15,"Cn1cncc1C(=O)NCCCc1ccc(-c2ccccc2F)cc1 [Compound 130, N-(3-(2′-fluoro-[1,1′-biphenyl]-4-yl)propyl)-1-methyl-1H-imidazole-5-carboxamide]",> 5 µM
16,"O=C(CCCc1ccc(-c2ccccc2F)cc1)Nc1ccc2c(c1)CNC2=O [Compound 59, 4-(2′-fluoro-[1,1′-biphenyl]-4-yl)-N-(1-oxoisoindolin-5-yl)butanamide]",> 5 µM
17,"O=C(NCCCc1ccc(-c2ccccc2F)cc1)c1ccno1 [Compound 111, N-(3-(2′-fluoro-[1,1′-biphenyl]-4-yl)propyl)isoxazole-5-carboxamide]",> 5 µM
18,"Nc1ccc(C(=O)NCCCc2ccc(-c3ccccc3F)cc2)cn1 [Compound 105, 6-amino-N-(3-(2′-fluoro-[1,1′-biphenyl]-4-yl)propyl)nicotinamide]",< 0.5 µM
19,"O=C(CCCc1ccc(-c2cccc(F)c2F)cc1)Nc1cccnc1 [Compound 149, 4-(2′,3′-difluoro-[1,1′-biphenyl]-4-yl)-N-(pyridin-3-yl)butanamide]",0.501 to 1 µM
20,"O=C(NCCCc1ccc(-c2ccccc2F)cc1)c1cccnc1 [Compound 64, N-(3-(2′-fluoro-[1,1′-biphenyl]-4-yl)propyl)nicotinamide]",< 0.5 µM
21,"O=C(NCCCc1ccc(-c2ccccc2F)cc1)c1ccc2c(c1)OCCO2 [Compound 91, N-(3-(2′-fluoro-[1,1′-biphenyl]-4-yl)propyl)-2,3-dihydrobenzo[b] [1,4]dioxine-6-carboxamide]",> 5 µM
22,"O=C(NCCCc1ccc(-c2ccccc2F)cc1)c1cnccn1 [Compound 76, N-(3-(2′-fluoro-[1,1′-biphenyl]-4-yl)propyl)pyrazine-2-carboxamide]",> 5 µM
